Data from article PMC9118553, “In Vivo Bioconcentration of 10 Anionic Surfactants in Rainbow Trout Explained by In Vitro Data on Partitioning and S9 Clearance” (Environmental Science & Technology, 2022).
“And” between values parts separate entries of the source, which are not always exact repeats. Identical values can stand only once. Marks after values point to notes of the source that are not given here.

Experiments:
rainbow trout = test: In vivo bioconcentration experiment with a mixture of anionic surfactants, flow-through aquaria, 10 °C, pH 7.8; conditions: for Log BCF: determined with measured concentrations in water; for Concentration in fish: individual fish; for diffusion coefficient (D) in the epithelial membrane of the gills: in vivo; for BCF (kinetic): kinetic BCF from measured concentrations in water; for BCF (steady-state): plateau 6-96 h, 95% confidence interval in brackets;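 for Uptake rate constant kU: L kg-1 h-1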
Procedure: The bioconcentration of a mixture of 10 anionic surfactants was measured in rainbow trout in water at pH 7.8. […] The experiment was conducted in flow-through aquaria with juvenile rainbow trout at 10 °C. Ethical approval for the experiments was obtained from Stockholms […] (decision 9967-2017). The fish, fish housing, fish handling, and procedure for introducing the mixture of […] chemicals were very similar to our previous study with cationic surfactants;[5] details are provided in Text S1. The experiment consisted of a 4-day exposure phase and a 7-day depuration phase. […] Water samples were collected and fish were sacrificed according to the schedule in Table S4. The water samples were collected just prior to the daily removal of feces from the aquarium. Triplicate samples were taken at each time point. […] The water/methanol mixture was analyzed using liquid chromatography-mass spectrometry (LC-MS)/MS as described below for fish. At each fish sampling, five fish were sacrificed. Following stunning and severance of the spinal cord, the whole fish were placed in a polyethylene bag, weighed, and immediately frozen at -20 °C. The weight of the individual fish at sacrifice was 24.0 ± 5.6 g. Three of the five fish from each time point were prioritized for analysis based on proximity to the median fish weight. Each fish was […] homogenized with an Ultra-turrax dispersing device. […] This mixture was homogenized in a bullet blender for 5 min and then placed in an ultrasound bath at 45 °C for 15 min. Following centrifugation for 15 min@3200 RCF, the supernatant was decanted and the extraction was repeated. The extracts were combined. For instrumental analysis, 5 μL of the fish extract or 60 μL of the water/methanol mixture (water samples) was separated on an Acquity UPLC BEH C18 column fitted with a BEH C18 pre-column and analyzed on a TSQ Quantiva triple quadrupole mass spectrometer. The mobile phase was methanol (10 mM ammonium acetate) and Milli-Q-filtered water (10 mM ammonium acetate) (see Table S5 for the liquid chromatography program). To avoid detergent blank peaks originating from cleaning mobile phase bottles, the methanol was prepared directly in the solvent bottle as delivered and Milli-Q was tapped into an empty methanol bottle. Furthermore, a guard column was fitted between the mobile phase and the autosampler to prevent background contamination from disturbing the analysis. All analytes were quantified against the BEHP internal standard, as it gave better reproducibility. […] The central goal of the analysis was to estimate kU and kT as well as the BCF (=kU/kT) from measurements of surfactant concentration in fish and water samples collected at different time points of the experiment. For the fish, only those time points were included for which CF(measured) was above the limit of quantitation (LOQ) in all three fish (data below the LOQ will have a positive bias; including them would result in a negative bias in kT). In this analysis, there exist two sources of uncertainty: first, uncertainty in the actual concentration in water CW at the time of sample collection and second, variability in the concentration in fish around the (expected) surfactant concentrations in fish assumed to follow model (1). We therefore set up a model in which we considered uncertainty in both water and fish measurements simultaneously by assuming a parametric model for the surfactant concentration in the water over time (either linear or quadratic) and accounted for the uncertainty in the corresponding parameters of the water model during the estimation of kU and kT. This was done in a joint Bayesian model that we estimated via Hamiltonian Monte Carlo. […]

[1] = cited from earlier work; for log DMW, membrane-water distribution ratio: marked * = measured, used for IVIVE, same values as Table 3
[2] = determined using nominal concentrations in water
[3] = from measured concentrations in water, Bayesian estimate, 95% credible interval in brackets
[4] = 95% credible interval in brackets
[5] = measured concentrations in water, simpler estimation method (Text S3), 95% confidence intervals in brackets
[6] = measured concentrations in water

BCF (rainbow trout; [2])	Log BCF (rainbow trout)	SMILES	Concentration in fish (rainbow trout; elimination phase, 97 h)	Concentration in fish (rainbow trout; elimination phase, 98 h)	Concentration in fish (rainbow trout; elimination phase, 100 h)	Concentration in fish (rainbow trout; elimination phase, 103 h)	Concentration in fish (rainbow trout; elimination phase, 120 h)	Concentration in fish (rainbow trout; elimination phase, 128 h)	Concentration in fish (rainbow trout; elimination phase, 144 h)	Concentration in fish (rainbow trout; elimination phase, 168 h)	Concentration in fish (rainbow trout; elimination phase, 192 h)	Concentration in fish (rainbow trout; elimination phase, 264 h)	Concentration in fish (rainbow trout; exposure phase, 1 h)	Concentration in fish (rainbow trout; exposure phase, 2 h)	Concentration in fish (rainbow trout; exposure phase, 3 h)	Concentration in fish (rainbow trout; exposure phase, 4 h)	Concentration in fish (rainbow trout; exposure phase, 6 h)	Concentration in fish (rainbow trout; exposure phase, 24 h)	Concentration in fish (rainbow trout; exposure phase, 48 h)	Concentration in fish (rainbow trout; exposure phase, 72 h)	further results
15.0 L kg-1 ww	1.21 L kg-1 ww	CCCCCCCCCCc1ccc(S(=O)(=O)O)cc1 [C10-1-LAS, 1-n-(p-sulfophenyl)decane]	78 ng g-1 ww (2×) and 103 ng g-1 ww	73 ng g-1 ww and 72 ng g-1 ww and 55 ng g-1 ww	74 ng g-1 ww and 57 ng g-1 ww and 60 ng g-1 ww	47 ng g-1 ww and 58 ng g-1 ww and 51 ng g-1 ww	24 ng g-1 ww and 27 ng g-1 ww and 17.2 ng g-1 ww	14.0 ng g-1 ww and 17.0 ng g-1 ww and 18.2 ng g-1 ww	7.6 ng g-1 ww and 6.8 ng g-1 ww and 10.2 ng g-1 ww	4.7 ng g-1 ww and 3.5 ng g-1 ww (2×)	1.08 ng g-1 ww and 1.14 ng g-1 ww and 1.40 ng g-1 ww	1.0 ng g-1 ww and 0.7 ng g-1 ww and 0.31 ng g-1 ww	8.9 ng g-1 ww and 6.9 ng g-1 ww and 16.6 ng g-1 ww	11.3 ng g-1 ww and 10.6 ng g-1 ww and 7.2 ng g-1 ww	16.5 ng g-1 ww and 19.7 ng g-1 ww and 16.6 ng g-1 ww	26 ng g-1 ww and 32 ng g-1 ww and 75 ng g-1 ww	38 ng g-1 ww (2×) and 27 ng g-1 ww	86 ng g-1 ww and 91 ng g-1 ww and 64 ng g-1 ww	94 ng g-1 ww and 98 ng g-1 ww and 84 ng g-1 ww	112 ng g-1 ww and 87 ng g-1 ww and 70 ng g-1 ww	Elimination rate constant kT (rainbow trout; [2]): 0.049 h⁻¹; Uptake rate constant kU (rainbow trout; [2]): 0.74 L/kg/h; Concentration in fish (rainbow trout; exposure phase, 96 h): 113 ng g-1 ww and 104 ng g-1 ww and 110 ng g-1 ww; Elimination rate constant kT (rainbow trout; [3]): 0.047 (0.044–0.050) h^–1; Uptake rate constant kU (rainbow trout; [3]): 0.77 (0.67–0.87) L kg^–1 ww h^–1; diffusion coefficient (D) in the epithelial membrane of the gills (rainbow trout): 2.4 × 10^–8 m h^–1; BCF (kinetic) (rainbow trout; [4]): 16.3 (14.6–18.2) L kg^–1 ww; BCF (rainbow trout; [5]): 14.7 (8) L kg-1 ww; Elimination rate constant kT (rainbow trout; [5]): 0.046 (3) h-1; Uptake rate constant kU (rainbow trout; [5]): 0.67 (8) L kg-1 ww h-1; BCF (rainbow trout; own values): 16.3 L kg^–1
0.046 L kg-1 ww	-1.38 L kg-1 ww	CCCCCCCCCCS(=O)(=O)O [C10SO3, decylsulfonate]	3.0 ng g-1 ww and 1.5 ng g-1 ww and 1.3 ng g-1 ww	1.5 ng g-1 ww and 1.0 ng g-1 ww and 1.4 ng g-1 ww	5.1 ng g-1 ww and 1.4 ng g-1 ww (2×)	0.3 ng g-1 ww (2×) and 0.6 ng g-1 ww	0.50 ng g-1 ww and 0.76 ng g-1 ww and 0.61 ng g-1 ww	0.62 ng g-1 ww and 0.49 ng g-1 ww and 0.99 ng g-1 ww	0.63 ng g-1 ww and 0.33 ng g-1 ww and 5.2 ng g-1 ww	0.49 ng g-1 ww and 0.55 ng g-1 ww and 0.16 ng g-1 ww	0.14 ng g-1 ww and 0.15 ng g-1 ww and 0.22 ng g-1 ww	2.0 ng g-1 ww and 1.9 ng g-1 ww and 0.2 ng g-1 ww	1.1 ng g-1 ww and 2.1 ng g-1 ww and 1.4 ng g-1 ww	1.1 ng g-1 ww (2×) and 7.5 ng g-1 ww	1.5 ng g-1 ww and 1.6 ng g-1 ww and 5.5 ng g-1 ww	2.4 ng g-1 ww and 3.5 ng g-1 ww and 6.5 ng g-1 ww	2.1 ng g-1 ww and 2.0 ng g-1 ww and 1.4 ng g-1 ww	42.8 ng g-1 ww and 1.4 ng g-1 ww (2×)	2.4 ng g-1 ww and 3.6 ng g-1 ww and 1.7 ng g-1 ww	3.6 ng g-1 ww and 2.1 ng g-1 ww and 3.0 ng g-1 ww	log DMW, membrane-water distribution ratio [1]: 3.01; log DMLW ([1]; measurement from Droge): 3.01 ^e L kg^–1; Concentration in fish (rainbow trout; exposure phase, 96 h): 3.0 ng g-1 ww (2×) and 2.8 ng g-1 ww; BCF (steady-state) (rainbow trout; [6]): 0.042 ^d (0.034–0.050) L kg^–1 ww
0.137 L kg-1 ww	-0.87 L kg-1 ww	CCCCCCCCCCCS(=O)(=O)O [C11SO3, undecylsulfonate]	5.5 ng g-1 ww and 3.8 ng g-1 ww and 3.2 ng g-1 ww	3.2 ng g-1 ww and 2.8 ng g-1 ww and 30.6 ng g-1 ww	14.1 ng g-1 ww and 2.8 ng g-1 ww and 3.1 ng g-1 ww	2.2 ng g-1 ww and 3.0 ng g-1 ww and 6.7 ng g-1 ww	0.58 ng g-1 ww and 0.87 ng g-1 ww and 0.78 ng g-1 ww	0.53 ng g-1 ww and 0.50 ng g-1 ww and 0.58 ng g-1 ww	0.49 ng g-1 ww and 0.42 ng g-1 ww and 0.53 ng g-1 ww	0.56 ng g-1 ww and 0.41 ng g-1 ww and 0.22 ng g-1 ww	0.10 ng g-1 ww and 0.19 ng g-1 ww (2×)	1.49 ng g-1 ww and 0.23 ng g-1 ww and 0.19 ng g-1 ww	3.2 ng g-1 ww and 1.5 ng g-1 ww and 8.4 ng g-1 ww	2.1 ng g-1 ww and 1.9 ng g-1 ww and 1.4 ng g-1 ww	2.9 ng g-1 ww and 3.6 ng g-1 ww and 3.2 ng g-1 ww	3.5 ng g-1 ww and 13.4 ng g-1 ww and 41 ng g-1 ww	4.7 ng g-1 ww and 5.0 ng g-1 ww and 3.8 ng g-1 ww	5.5 ng g-1 ww and 4.2 ng g-1 ww and 3.8 ng g-1 ww	4.4 ng g-1 ww and 5.1 ng g-1 ww and 3.7 ng g-1 ww	7.2 ng g-1 ww and 5.2 ng g-1 ww and 4.9 ng g-1 ww	log DMW, membrane-water distribution ratio [1]: 3.39; Concentration in fish (rainbow trout; exposure phase, 96 h): 8.1 ng g-1 ww and 7.8 ng g-1 ww and 5.3 ng g-1 ww; BCF (steady-state) (rainbow trout; [6]): 0.136 ^d (0.114–0.158) L kg^–1 ww
0.57 L kg-1 ww	-0.11 L kg-1 ww	CCCCCCCCCCCOS(=O)(=O)O [C11SO4, undecylsulfate]	5.9 ng g-1 ww and 5.5 ng g-1 ww and 6.7 ng g-1 ww	4.6 ng g-1 ww and 4.4 ng g-1 ww and 3.8 ng g-1 ww	6.6 ng g-1 ww and 3.0 ng g-1 ww and 3.5 ng g-1 ww	1.5 ng g-1 ww and 2.0 ng g-1 ww and 2.7 ng g-1 ww	1.06 ng g-1 ww and 0.77 ng g-1 ww and 0.51 ng g-1 ww	0.66 ng g-1 ww and 0.48 ng g-1 ww and 0.54 ng g-1 ww	0.53 ng g-1 ww and 0.27 ng g-1 ww and 0.19 ng g-1 ww	0.59 ng g-1 ww and 0.22 ng g-1 ww and 0.17 ng g-1 ww	0.08 ng g-1 ww and 0.13 ng g-1 ww and 0.09 ng g-1 ww	0.84 ng g-1 ww and 0.15 ng g-1 ww (2×)	3.1 ng g-1 ww and 3.6 ng g-1 ww and 4.1 ng g-1 ww	5.6 ng g-1 ww and 4.4 ng g-1 ww and 4.1 ng g-1 ww	7.5 ng g-1 ww and 9.4 ng g-1 ww and 7.6 ng g-1 ww	10.7 ng g-1 ww and 11.2 ng g-1 ww and 18.0 ng g-1 ww	15.8 ng g-1 ww and 14.7 ng g-1 ww and 14.1 ng g-1 ww	18.5 ng g-1 ww and 15.1 ng g-1 ww and 10.9 ng g-1 ww	7.4 ng g-1 ww and 12.0 ng g-1 ww and 11.2 ng g-1 ww	12.6 ng g-1 ww and 8.7 ng g-1 ww and 8.2 ng g-1 ww	log DMW, membrane-water distribution ratio [1]: 4.16; Elimination rate constant kT (rainbow trout; [2]): 0.233 h⁻¹; Uptake rate constant kU (rainbow trout; [2]): 0.133 L/kg/h; Concentration in fish (rainbow trout; exposure phase, 96 h): 9.9 ng g-1 ww and 8.7 ng g-1 ww and 14.1 ng g-1 ww; Elimination rate constant kT (rainbow trout; [3]): 0.178 (0.151–0.206) h^–1; Uptake rate constant kU (rainbow trout; [3]): 0.136 (0.113–0.163) L kg^–1 ww h^–1; diffusion coefficient (D) in the epithelial membrane of the gills (rainbow trout): 3.7 × 10^–8 m h^–1; BCF (kinetic) (rainbow trout; [4]): 0.77 (0.68–0.87) L kg^–1 ww; BCF (rainbow trout; [5]): 0.74 (33) L kg-1 ww; Elimination rate constant kT (rainbow trout; [5]): 0.179 (19) h-1; Uptake rate constant kU (rainbow trout; [5]): 0.133 (27) L kg-1 ww h-1; BCF (rainbow trout; own values): 0.77 L kg^–1
